Values joined by “and” are separate entries in the source; they are usually repeats but may differ in a detail not shown here. Identical values can stand only once.
Legend:
[1] = test system: MB49-Luc cells; experiment: Cell adhesion assay on coated microtiter plates; assay type: cell-based, murine
Protocol: (§1) The plates were washed and blocked with 2% BSA in DMEM or RPMI-1640 (200 μl/well, 1 h). MB49-Luc and 5637 cells were detached with DPBS-E, washed twice with DPBS, and suspended in DMEM or RPMI-1640 containing 0.1% BSA (binding buffer-3), and added to the coated-plates (1.5×10^5 cells/well, 100 μl). After 1-2 h of incubation at 37° C., 5% CO2, the plates were washed with binding buffer-3. Adherent cells were fixed and stained with 0.5% crystal violet in 20% methanol. After washing with water, the dye was extracted from cells using a 10% acetic acid solution (140 μl/well) and the absorbance at 570 nm was measured using a microplate reader.

[2] = test system: 5637 cells; experiment: Cell adhesion assay on coated microtiter plates; assay type: cell-based, human; details: crystal violet stain
Protocol: as §1

[3] = Physicochemical characterization of GNRs (VIS-NIR, TEM, zeta potential)
Protocol: Characterization of the physicochemical properties of GNRs@CTAB, GNRs@Chit and functionalized GNRs@Chit-Iso4: Gold concentration was determined by flame atomic absorption spectroscopy (FAAS) using a SpectraAA 100 Varian spectrometer (Agilent Technologies, Santa Clara, USA). Gold nanorods (100 μL) were dissolved in aqua regia (3 mL) and diluted to 10 mL with ultrapure water prior to analysis. For the calibration of the FAAS analysis, Au standard solutions at 1, 2, 5 and 10 mg/L were prepared by diluting the appropriate amounts of […] TraceCERT® solutions in 30% aqua regia.
VIS-NIR absorption spectra (range 400-1100 nm) were recorded using a Cary 3500 UV-VIS-NIR modular spectrometer (Agilent Technologies, Santa Clara, USA) using a 1 cm path-length plastic cuvette.
Transmission Electron Microscopy (TEM) was performed using a TEM/STEM FEI TECNAI F20 operating at 200 keV equipped with a probe for energy-dispersing x-ray spectroscopy (EDX), selected-area electron diffraction (SAED) and High Angle Annular Dark Field Detector (HAADF). Before the analysis, samples were placed on a continuous-carbon film, supported on a copper grid and dried at 120° C.
Zeta potential measurements were performed using a Zetasizer-nano-S (Malvern Panalytical, Malvern, UK) in DTS1060C-Clear disposable zeta cells, at 25° C.

[4] = Stability of GNRs in human urine; assay type: physicochemical; details: 37° C.
Protocol: Stability of GNRs@Chit and GNRs@Chit-Iso4 in human urine: The stability of GNRs@Chit-Iso4 in human urine was assessed by diluting the GNR solution (0.725 mM of Au in 10 ml of water) with human urine samples (10 ml) collected from 10 healthy adult volunteers (4 males and 6 females) and placed under stirring in a water bath at 37° C. At various time points, 1 mL of the mixture was withdrawn, diluted in 10 mL of cold water (+4° C.) and subjected to VIS-NIR. A urine solution (50% in water) was used as the blank reference in the spectrometric analysis.

[5] = In vitro PAI of GNRs in agar drops; details: agar drop, no IL
Description: (§2) US and PAI of GNRs@Chit and GNRs@Chit-Iso4: High-resolution US and PA imaging have been acquired using the Vevo LAZR-X platform (FUJIFILM VisualSonics, Inc., Toronto, ON, Canada). The imaging platform includes a high frequency US system (Vevo 3100) combined with an Nd:YAG nano-second pulsed laser with repetition rate of 20 Hz. The linear US transducer array Mx 550D consists of 256 elements with a nominal center frequency of 40 MHz (25-55 MHz bandwidth) and a spatial resolution of 40 μm with a maximum imaging depth of 15 mm. Light from the laser is delivered to the tissue through optical fibers mounted on either side of the transducer. During volumetric US-PA acquisitions, a stepper motor is used for the linear translation of the US transducer and optical fibers along the sample. The linear stepper motor moves in steps of a minimum of 0:1 mm while capturing 2-D parallel images, for a maximum 3D range distance of 6.4 cm.
(§3) 3D B mode scan was carried out for in vitro (drop) and in vivo (mouse bladder) studies. […]
In vitro PAI of GNRs was carried out as follows: GNRs (30 μl in DPBS with calcium and magnesium) were mixed with a 1% agar solution (30 μl), the mixture was then poured on Parafilm® M (Sigma) and left to solidify in a humidified chamber (FIG. 15). […] PA and US data have been analyzed using VevoLab 3.2.5 software (FIG. 15).

[6] = In vivo PAI of murine bladder after intravesical instillation; parameters: species or system mice; details: three cycles of manual handling, two washes
Description: as §2, §3

[7] = test system: MB49-Luc derived orthotopic bladder tumor; experiment: PAI of orthotopic MB49-Luc bladder tumor after intravesical instillation; assay type: in vivo, mice; details: for detection of lesions undetectable by US imaging: small orthotopic tumor
Protocol: Murine orthotopic bladder tumor model: All procedures and studies involving mice were approved by the Institutional Animal Care and Use Committee of San Raffaele Scientific Institute and performed according to the prescribed guidelines (IACUC, approval number 942). Female albino C57BL/6J mice (9 weeks old, weighing about 20 g, Charles River Laboratories, Italy) were anesthetized with ketamine (80 mg/kg) and xylazine (15 mg/kg) and kept in dorsal position. Using a 24-gauge catheter, the bladder of each mouse was emptied and instilled with or without MB49-Luc cells (10^5 cells/100 μl in DPBS). Thirty minutes later the catheter was removed, and mice were allowed to recover and returned to their cage. Tumor growth was monitored by measuring the tumor volume through US imaging (see below) and in vivo bioluminescent quantification after administration of luciferin (15 mg/kg, intra peritoneum) using the non-invasive In Vivo Imaging System (IVIS, PerkinElmer, USA).
as §2
3D B mode scan was carried out for in vitro (drop) and in vivo (mouse bladder) studies. The photoacoustic spectra between 680 nm and 970 nm were scanned with a step size of 5 nm; for the in vivo studies (murine bladder) the 3D multispectral PA scans were acquired selecting PA spectral curve of tissue components melanin, deoxy- and oxy-generated blood, and GNRs; the processed wavelengths (680; 722; 764; 810; 924; 970 nm) were automatically selected from the spectral curve used to spectrally unmix the GNRs signal from other endogenous tissue chromophore signals such as oxy, deoxy hemoglobin. The algorithm reported by Luke et al was used to select these wavelengths which is ideal for separating the signal from GNRs from other endogenous absorbers.
Data analyses were conducted using the Vevo® Lab software; volumes of interest were obtained by manually drawing Volumes of Interest (VOIs) on 3D B-mode images. GNRs, melanin, oxy- and deoxy-hemoglobin content were estimated through spectral unmixing analyses of the spectroscopic data.

## GNRs@Chit-Iso4: gold nanorods coated with thiolated chitosan, coupled via NHS-PEG12-maleimide crosslinker to the Iso4 peptide
[1]; MB49-Luc cells in DMEM medium containing 25-75% urine
  increase of cell adhesion caused by urine: ~20%
[1]; MB49-Luc cells, crystal violet stain
  cell adhesion to solid phase coated with the substance: induced cell adhesion and spreading
[2]
  cell adhesion to solid phase coated with the substance: induced cell adhesion and spreading
[3]; TEM
  GNRs length: 90.2±7.2 nm and 90.2 ± 7.2d nm
  GNRs width: 24.9±2.6 nm and 24.9 ± 2.6d nm
[3]; VIS-NIR
  λmax (wavelength of max absorbance, longitudinal-LSPR peak): 802 nm
[3]; calculated as the length/width ratio
  Aspect Ratio: 3.62±0.67 and 3.6 ± 0.6
[4]
  incubation time in urine without dramatic loss of optical properties in the NIR: at least 2 h
[4]; human urine, first 40 minutes
  reduction of the absorbance at ~800 nm: 14%
[4]; human urine, following 80 minutes
  further reduction of the absorbance at ~800 nm: 7%
[4]; human urine, up to 2 h
  change in the shape of the LSPR spectrum: No significant change
[5]
  behaviour under pulsed laser with light attenuators without IL: underwent reshaping
[6]
  binding in healthy mice: no binding
[7]; 3 nmol Au, two washing steps, tumor on the left side
  PA signal at tumor without manual handling of urine: lack of PA signal
[7]; 4 days after MB49-Luc cell implantation
  volume of small tumor detected: 7.9 mm^3
[7]
  detection of lesions undetectable by US imaging: can reveal the presence of lesions undetectable with US imaging and bioluminescence
[7]; listed as GNR@Chit-Iso4
  detection of lesions undetectable by US imaging: a neoplastic region in the upper region of the bladder that was undetectable by US scan
[7]; well-established tumor, three cycles of manual handling, two washes
  binding in tumor bearing mice by PAI: to the three well-established neoplastic lesions at the bottom, lateral side and upper part of the bladder, and not present in non-neoplastic tissue

From patent US20260097138A1, “BIOMATERIAL COATED NANOSTRUCTURES FOR PHOTOACOUSTIC IMAGING AND PHOTOTHERMAL THERAPY OF TUMOR LESIONS” (OSPEDALE SAN RAFFAELE S.R.L., priority 2022, published 2026)
